# In patent EP0603240B1, “SAFENING HERBICIDAL PYRAZOLYLSULFONYLUREAS” (priority 1991, dated 1993):
# Experiments:
# Type in all cases: in vivo
# corn [1] = test: Example 1, greenhouse Procedure II: antidotes against Herbicide No. 1; details: Herbicide No. 1, Table 1
# Description: (§1) Containers were filled and compacted with a fumigated silt loam top soil to a depth of about 1.3 cm from the top of the container. A first container was designated as an untreated control, a second container was designated as a herbicide control, and a third container was designated as a herbicide + antidote test container. Each of the containers was seeded with a crop species. A measured amount of herbicide dispersed or dissolved in acetone was applied to a measured quantity of soil. To this same quantity of soil treated with herbicide, there was added a measured amount of antidote dispersed or dissolved in acetone. The quantity of soil treated with the herbicide and antidote was thoroughly mixed to incorporate the herbicide and antidote in the soil uniformly. The seed bed in the third container of soil was covered with the soil treated with the herbicide and antidote and the container was leveled. For each test series, the seed beds of the first and second containers were likewise covered by soil layers. the cover layer of the first container was not treated with herbicide or antidote.
# (§2) The containers were then placed on a bench in a greenhouse and sub-irrigated as required for the duration of the test. […] Plant response is measured in terms of percent injury. Antidote efficacy is indicated as the difference in plant injury by the herbicide(s) without the antidote and with the antidote.
# (§3) This procedure is the same as Procedure I, but modified in the manner that after incorporation of the chemicals (herbicide and antidote) the containers with the covered seedbed were treated with an initial overhead irrigation equivalent to 0.6 cm rainfall, then subsequently sub-irrigated as required on greenhouse benches.
# (§4) In the series of greenhouse tests described below, for routine screening purposes the herbicide/antidote compositions were tested in crop/weed combinations involving corn as the crop and either or both of the weeds barnyardgrass (Echinochloa crusgalli), a monocotyledonous weed, and velvetleaf (Abutilon theophrasti), a dicotyledonous weed. In the tables below, these weeds are indicated by the symbols "BYG" and "VL", respectively.
# This example was designed to investigate the antidotal efficacy of a plurality of antidotes against Herbicide No. 1 in corn in the presence of barnyard grass and velvetleaf. The antidotes used in this example were Antidote Nos. 1-10, 12, 13 and 15.
# The test in this example was conducted as described above for Procedure II. The antidotes were applied to the soil cover layer by pipet after spraying on the herbicide followed by incorporation and simulated rain.
# corn [2] = test: Example 17, Procedure II: Herbicide No. 1 + vernolate (No. 11) with antidotes; details: Table 17
# Description: as §1
# as §2, with “antidote. […]” for “antidote.”
# corn [3] = test: Example 3, Procedure I: antidotes against Herbicide No. 1
# Description: as §1, §2
# (§5) This example details the results of tests with Antidote Nos. 12, 15 and 16 to safen Herbicide No. 1 over application rates ranging from 4.48 kg/ha down to 0.56 kg/ha, in corn in the presence of barnyardgrass. Procedure I described above was used in these tests.
# corn [4] = test: Example 4, Procedure I: Antidote Nos. 15 and 16 against Herbicide No. 1
# Description: as §1, §2
# (§6) This example describes tests with Antidote Nos. 15 and 16 to safen Herbicide No. 1 according to Procedure I using corn and the weeds barnyardgrass and velvetleaf as the test plants.
# corn [5] = test: Example 5, Procedure I: Herbicide No. 1 + alachlor (No. 7) with Antidote Nos. 15 and 16
# Description: as §1, §2, §6
# (§7) In the tests described in this example, the same procedure described in Example 4 was performed simultaneously therewith and under the same conditions, except that a co-herbicide, alachlor, was included in the same composition with Herbicide No. 1 and Antidote Nos. 15 and 16. Alachlor (Herbicide No. 7 herein) is the active ingredient in the commercial product LASSO® herbicide.
# corn [6] = test: Example 12, Procedure II: Herbicide No. 1 + acetochlor (No. 6) with thirteen antidotes; details: Herbicide No.6 2.24 kg/ha alone, no antidote
# Description: as §1, §2, §3
# This example was designed to investigate the efficacy of thirteen different antidotes from different classes of chemistry as safeners against compositions of Herbicide No. 1 and acetochlor (Herbicide No. 6) as co-herbicide. Acetochlor is the active ingredient in the commercial herbicides GUARDIAN® and WENNER®.
# The test procedure used in this example was Procedure II described above.
# corn [7] = test: Example 13, Procedure II: Herbicide No. 1 + acetochlor (No. 6) with dichloroacetamide antidotes; details: Herbicide No.6 4.48 kg/ha alone, no antidote
# Description: as §1, §2, §3
# In this example a plurality of dichloroacetamide antidotes were tested for their safening efficacy against a herbicidal composition comprising Herbicide No. 1 and a co-herbicide, acetochlor (Herbicide No. 6) in corn in the presence of velvetleaf. The procedure used in this example was Procedure II above.
# [8] = test system: barnyardgrass (Echinochloa crusgalli); test: Example 5, Procedure I: Herbicide No. 1 + alachlor (No. 7) with Antidote Nos. 15 and 16
# Description: as §1, §2, §4, §6, §7
# [9] = test system: velvetleaf (Abutilon theophrasti); test: as above
# Description: as §1, §2, §4, §6, §7
# [10] = test system: barnyardgrass (Echinochloa crusgalli); test: Example 4, Procedure I: Antidote Nos. 15 and 16 against Herbicide No. 1
# Description: as §1, §2, §4, §6
# [11] = test system: velvetleaf (Abutilon theophrasti); test: as above
# Description: as §1, §2, §4, §6
# [12] = test system: barnyardgrass (Echinochloa crusgalli); test: Example 3, Procedure I: antidotes against Herbicide No. 1
# Description: as §1, §2, §4, §5
# [13] = Herbicide No.1 4.48 + No.7 0.56 kg/ha + antidote 0.56 kg/ha
# [14] = Herbicide No.1 4.48 + No.7 0.56 kg/ha + antidote 2.24 kg/ha
# [15] = Herbicide No.1 4.48 + No.7 2.24 kg/ha + antidote 0.56 kg/ha
# [16] = Herbicide No.1 4.48 + No.7 2.25 kg/ha + antidote 2.24 kg/ha
# [17] = Herbicide No.1 6.72 + No.7 0.56 kg/ha + antidote 0.56 kg/ha
# [18] = Herbicide No.1 6.72 + No.7 0.56 kg/ha + antidote 2.24 kg/ha
# [19] = Herbicide No.1 6.72 + No.7 2.24 kg/ha + antidote 0.56 kg/ha
# [20] = Herbicide No.1 6.72 + No.7 2.25 kg/ha + antidote 2.24 kg/ha
# [21] = Herb. No. 1 4.48 kg/ha + antidote 0.56 kg/ha
# [22] = Herb. No. 1 4.48 kg/ha + antidote 2.24 kg/ha
# [23] = Herb. No. 1 6.72 kg/ha + antidote 0.56 kg/ha
# [24] = Herb. No. 1 6.72 kg/ha + antidote 2.24 kg/ha
# [25] = Herb. No. 1 0.56 kg/ha + antidote 0.56 kg/ha
# [26] = Herb. No. 1 0.56 kg/ha + antidote 2.24 kg/ha
# [27] = Herb. No. 1 0.56 kg/ha + antidote 8.96 kg/ha
# [28] = Herb. No. 1 1.12 kg/ha + antidote 0.56 kg/ha
# [29] = Herb. No. 1 1.12 kg/ha + antidote 2.24 kg/ha
# [30] = Herb. No. 1 1.12 kg/ha + antidote 8.96 kg/ha
# [31] = Herb. No. 1 2.24 kg/ha + antidote 0.56 kg/ha
# [32] = Herb. No. 1 2.24 kg/ha + antidote 2.24 kg/ha
# [33] = Herb. No. 1 2.24 kg/ha + antidote 8.96 kg/ha
# [34] = Herb. No. 1 4.48 kg/ha + antidote 8.96 kg/ha
# [35] = antidote 8.96 kg/ha alone, no herbicide
structure (smiles),measurement,setting,value
"O=C(C(Cl)Cl)N1CCCC12CCCC2 [Antidote No. 9, 1-Azaspiro[4,4]noname, 1-(dichloroacetyl)-]","safening of corn, assessment in words",corn [1],best safening effect across quadruple treatments
same,"safening of corn, assessment in words",corn [2],best overall safening performance
"CC1(C)OC(c2cccnc2)CN1C(=O)C(Cl)Cl (stereo not drawn) [Antidote No. 16, Pyridine, 3-[3-(dichloroacetyl)-2,2-dimethyl-5-oxazolidinyl]-]","safening of corn, assessment in words","corn [3]; Herbicide No. 1, Table 3",excellent protection for corn
same,"safening of corn, assessment in words","corn [4]; Herbicide No. 1, Table 4",substantial safening of Herbicide No. 1
same,"safening of corn, assessment in words","corn [5]; Herbicide Nos. 1 and 7, Table 5",substantial safening of corn
CCOCN(C(=O)CCl)c1c(C)cccc1CC [Herbicide No.6],% Injury Corn,corn [6],25%
same,% Injury Corn,corn [7],50%
CC1(C)OC(c2cccnc2)CN1C(=O)C(Cl)Cl (stereo not drawn) [compound 16],% Injury BYG,[8]; [13],100%
same,% Injury BYG,[8]; [14],100%
same,% Injury BYG,[8]; [15],100%
same,% Injury BYG,[8]; [16],100%
same,% Injury BYG,[8]; [17],95%
same,% Injury BYG,[8]; [18],100%
same,% Injury BYG,[8]; [19],100%
same,% Injury BYG,[8]; [20],100%
same,% Injury VL,[9]; [13],95%
same,% Injury VL,[9]; [14],95%
same,% Injury VL,[9]; [15],98%
same,% Injury VL,[9]; [16],98%
same,% Injury VL,[9]; [17],98%
same,% Injury VL,[9]; [18],95%
same,% Injury VL,[9]; [19],98%
same,% Injury VL,[9]; [20],99%
same,% Injury BYG,[10]; [21],95%
same,% Injury BYG,[10]; [22],95%
same,% Injury BYG,[10]; [23],95%
same,% Injury BYG,[10]; [24],95%
same,% Injury VL,[11]; [21],95%
same,% Injury VL,[11]; [22],95%
same,% Injury VL,[11]; [23],95%
same,% Injury VL,[11]; [24],95%
same,% Injury Corn,corn [3]; [25],0%
same,% Injury Corn,corn [3]; [26],0%
same,% Injury Corn,corn [3]; [27],0%
same,% Injury Corn,corn [3]; [28],0%
same,% Injury Corn,corn [3]; [29],0%
same,% Injury Corn,corn [3]; [30],0%
same,% Injury Corn,corn [3]; [31],5%
same,% Injury Corn,corn [3]; [32],0%
same,% Injury Corn,corn [3]; [33],0%
same,% Injury Corn,corn [3]; [21],5%
same,% Injury Corn,corn [3]; [22],5%
same,% Injury Corn,corn [3]; [34],5%
same,% Injury Corn,corn [3]; [35],0%
same,% Injury Corn,corn [4]; [21],70%
same,% Injury Corn,corn [4]; [22],15%
same,% Injury Corn,corn [4]; [23],35%
same,% Injury Corn,corn [4]; [24],30%
same,% Injury BYG,[12]; [25],65%
same,% Injury BYG,[12]; [26],60%
same,% Injury BYG,[12]; [27],50%
same,% Injury BYG,[12]; [28],70%
same,% Injury BYG,[12]; [29],80%
same,% Injury BYG,[12]; [30],85%
same,% Injury BYG,[12]; [31],85%
same,% Injury BYG,[12]; [32],90%
same,% Injury BYG,[12]; [33],80%
same,% Injury BYG,[12]; [21],75%
same,% Injury BYG,[12]; [22],80%
same,% Injury BYG,[12]; [34],95%
same,% Injury BYG,[12]; [35],0%
same,% Injury Corn,corn [5]; [13],48%
same,% Injury Corn,corn [5]; [14],18%
same,% Injury Corn,corn [5]; [15],53%
same,% Injury Corn,corn [5]; [16],40%
same,% Injury Corn,corn [5]; [17],43%
same,% Injury Corn,corn [5]; [18],55%
same,% Injury Corn,corn [5]; [19],80%
same,% Injury Corn,corn [5]; [20],55%
